Measured values taken from US20170340689A1, “TITRATED EXTRACTS OF CYNARA SCOLYMUS FOR USE IN THE TREATMENT OF MESOTHELIOMA” (ABOCA S.P.A SOCIETÀ AGRICOLA, priority 2014, published 2017).

Test system: untransformed HMC cells
Assay: ATPlite cell vitality assay in co-treatment with pemetrexed, untransformed cells
Assay type: cell-based, human
Details: extract at non-cytotoxic dose 6 μg/ml
Text: 4.1 Association of Extract of Cynara Spp. and Pemetrexed with ATPlite™ Assay

SMILES: Nc1nc2[nH]cc(CCc3ccc(C(=O)N[C@@H](CCC(=O)O)C(=O)O)cc3)c2c(=O)[nH]1 [PMTX, pemetrexed]
- cell vitality of untransformed HMC cells, pemetrexed alone or with extract: highly toxic for the non-tumour cells
